Substitutions are numbered along the chain they refer to. Values joined by “and” are separate entries in the source; they are usually repeats but may differ in a detail not shown here. Identical values can stand only once. Like-named read-outs stand apart in the source and are kept apart here.
Tests used:
Type in all cases: binding
PotF_Abox_Prox = molecular target: T1, PotF_Abox_Prox (Escherichia coli, UniProt P31133, D247S/D39E/F276W/S38T); experiment: ITC, PotF_Abox_Prox (S38T, D39E, D247S, F276W); settings: 293 K, 50 mM Tris pH 8, 300 mM NaCl, biological triplicates
T1 construct: without the N-terminal signal peptide; made in house; host or cells: E. coli BL21 (DE3)
T1 sequence (P31133 27-370 S38T/D39E/D247S/F276W): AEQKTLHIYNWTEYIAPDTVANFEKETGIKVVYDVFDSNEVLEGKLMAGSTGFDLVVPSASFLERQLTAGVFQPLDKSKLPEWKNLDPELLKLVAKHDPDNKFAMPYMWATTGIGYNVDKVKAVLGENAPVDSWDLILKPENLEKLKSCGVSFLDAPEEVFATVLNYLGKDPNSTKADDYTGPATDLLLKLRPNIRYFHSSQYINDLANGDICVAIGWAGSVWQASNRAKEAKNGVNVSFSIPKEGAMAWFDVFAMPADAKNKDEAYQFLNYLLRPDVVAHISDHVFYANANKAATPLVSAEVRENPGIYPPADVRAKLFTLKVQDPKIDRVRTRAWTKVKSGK
Experimental: (§1) Ligands were always freshly prepared in the exact same buffer as was used for the size exclusion run. Samples were degassed, and temperature was equilibrated using a degassing station (TA Instruments). About 400 μl protein sample of different concentrations (Table S5) depending on affinity was transferred into the sample cell of a nanoITC (TA Instruments), and 50 μl of about tenfold concentrated ligand solution was loaded into the injection needle. Multiple injection measurements were carried out at 293 K, 300 rpm stirring rate, and 250 s spacings between each 2 μl injection. The heat quantity past injection was determined by integration of the measured peaks. Every protein–ligand combination was measured as biological triplicate. Subtraction of heat of dilution measurements, peak integration, and one site binding fits were done with NanoAnalyze (TA Instruments). Reported errors are the errors between fits of the measured triplicates.

PotF/D–E39D–F88A–S247D = molecular target: T2, PotF/D–E39D–F88A–S247D (Escherichia coli, UniProt P31133, A182D/F276W/F88A/L348Q/S38T/S87Y); experiment: ITC, PotF/D–E39D–F88A–S247D; settings: 293 K; for n: ITC binding stoichiometry; for ΔG / ΔH / −TΔS / Kd: ITC; for Kd: 50 mM Tris pH 8, 300 mM NaCl, biological triplicates
T2 construct: without the N-terminal signal peptide; made in house; host or cells: E. coli BL21 (DE3)
T2 sequence (P31133 27-370 S38T/S87Y/F88A/A182D/F276W/L348Q): T1 sequence (P31133 27-370 S38T/D39E/D247S/F276W) with E13D, S61Y, F62A, A156D, S221D, L322Q
Experimental: as §1

PotF_Abox_Dist = molecular target: T3, PotF_Abox_Dist (Escherichia coli, UniProt P31133, A182D/F276W/L348Q/S87Y); experiment: ITC, PotF_Abox_Dist (S87Y, A182D, L348Q, F276W); settings: 293 K
T3 construct: without the N-terminal signal peptide; made in house; host or cells: E. coli BL21 (DE3)
T3 sequence (P31133 27-370 S87Y/A182D/F276W/L348Q): T1 sequence (P31133 27-370 S38T/D39E/D247S/F276W) with T12S, E13D, S61Y, A156D, S221D, L322Q
Experimental: as §1

[1] = molecular target: T4, PotF/D–E39D–Y87S–F88Y–S247D (Escherichia coli, UniProt P31133, A182D/F276W/F88Y/L348Q/S38T); experiment: ITC, PotF/D–E39D–Y87S–F88Y–S247D; settings: 293 K; for n: ITC binding stoichiometry; for ΔG / ΔH / −TΔS / Kd: ITC
T4 construct: without the N-terminal signal peptide; made in house; host or cells: E. coli BL21 (DE3)
T4 sequence (P31133 27-370 S38T/F88Y/A182D/F276W/L348Q): T1 sequence (P31133 27-370 S38T/D39E/D247S/F276W) with E13D, F62Y, A156D, S221D, L322Q
Experimental: as §1

PotF_Abox = molecular target: T5, PotF_Abox (Escherichia coli, UniProt P31133, F276W); experiment: ITC, PotF_Abox (F276W); settings: for n: ITC binding stoichiometry; for n / Kd / ΔG / ΔH / −TΔS: 293 K, PotF_Abox; for Kd: 50 mM Tris pH 8, 300 mM NaCl, biological triplicates
T5 construct: without the N-terminal signal peptide; made in house; host or cells: E. coli BL21 (DE3)
T5 sequence (P31133 27-370 F276W): T1 sequence (P31133 27-370 S38T/D39E/D247S/F276W) with T12S, E13D, S221D
Experimental: as §1

[2] = ITC, 50 mM Tris pH 8, 300 mM NaCl, biological triplicates
[3] = ITC, PotF_Abox compared with wildtype PotF

Row | Structure (SMILES) | KD (PotF_Abox_Prox) | n (PotF/D–E39D–F88A–S247D) | ΔG (PotF/D–E39D–F88A–S247D) | ΔH (PotF/D–E39D–F88A–S247D) | −TΔS (PotF/D–E39D–F88A–S247D) | Kd (PotF/D–E39D–F88A–S247D) | n [1] | ΔG [1] | ΔH [1] | −TΔS [1] | n (PotF_Abox) | Kd (PotF_Abox; ITC) | ΔG (PotF_Abox; ITC) | ΔH (PotF_Abox; ITC) | −TΔS (PotF_Abox; ITC) | other results
1 | NCCCCN [PUT, putrescine] | no binding | 0.92 ± 0.04 | -5.23 ± 0.02 kcal/mol | -5.21 ± 0.14 kcal/mol | -0.02 ± 0.15 kcal/mol | 126 ± 5.29 µM | 0.90 ± 0.01 | -5.51 ± 0.02 kcal/mol | -4.15 ± 0.05 kcal/mol | -1.36 ± 0.05 kcal/mol | 0.90 ± 0.03 | ~0.21 µM and 0.21 µM | -8.97 ± 0.10 kcal/mol | -22.25 ± 0.77 kcal/mol | 13.28 ± 0.75 kcal/mol | KD (PotF_Abox_Dist; [2]): not detectable; Kd ([1]; 50 mM Tris pH 8, 300 mM NaCl, biological triplicates, read-out: KD): 77.9 ± 3.17 µM; ΔΔH (PotF_Abox; [3]): +0.77 kcal/mol
2 | NCCCCNCCCN [SPD, spermidine] | very low | 0.91 ± 0.01 | -7.82 ± 0.06 kcal/mol | -4.75 ± 0.09 kcal/mol | -3.07 ± 0.14 kcal/mol | 1.48 ± 0.14 µM | 0.91 ± 0.02 | -8.17 ± 0.17 kcal/mol | -5.46 ± 0.08 kcal/mol | -2.71 ± 0.16 kcal/mol | 0.96 ± 0.06 | ~11 µM and 11.1 µM | -6.65 ± 0.04 kcal/mol | -6.25 ± 0.16 kcal/mol | -0.40 ± 0.21 kcal/mol | n (PotF_Abox_Dist; ITC binding stoichiometry): 0.94 ± 0.00; ΔG (PotF_Abox_Dist; ITC): -6.85 ± 0.02 kcal/mol; ΔH (PotF_Abox_Dist; ITC): -5.28 ± 0.07 kcal/mol; −TΔS (PotF_Abox_Dist; ITC): -1.57 ± 0.09 kcal/mol; Kd (PotF_Abox_Dist; [2]): ~7.8 µM and 7.8 µM and 7.77 µM; Kd ([1]; read-out: SPD affinity (KD)): 0.84 µM; Δ(−TΔS) (PotF_Abox; [3]): +2.02 kcal/mol

— paper PMC8666671, “Fine-tuning spermidine binding modes in the putrescine binding protein PotF” (The Journal of Biological Chemistry, 2021)
